From ChEMBL document CHEMBL1201862, “PubChem BioAssay data set” (2004)
Active and inactive are the calls of the source.

Legend:
BJ [1] = experiment: BJ-TERT-LT-ST fibroblast viability loss – cell-based, RAS-independent, luminescence, dose response (AID 1935); type: functional; settings: Homo sapiens;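 also: BJ fibroblasts immortalized with TERT plus LT and ST oncogenes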
[2] = luciferase reporter signal suppression in cells – H4 neuroglioma cells, luminescence, dose response (AID 1990); type: functional, cell-based
HeLa = experiment: Cytotoxicity counterscreen assay for transcriptional activators of heat shock protein 70 (Hsp70). [Related pubchem assays: 1203, 1252 ]; type: functional; settings: Homo sapiens;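 also: cells exposed to compound for 16 hours before readout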
BJ [3] = experiment: BJ-TERT fibroblast viability loss – cell-based, RAS-independent, luminescence, dose response (AID 1933); type: functional; settings: Homo sapiens
[4] = tested on: Streptococcus sp. 'group A'; experiment: Streptococcus pyogenes SK(-)GAS viability under kanamycin – luminescence, BacTiterGlo, confirmation, counter-screen for streptokinase expression inhibitor project, dose response (AID 1900); type: functional, organism-based
[5] = molecular target: T1, Ubiquitin-conjugating enzyme E2 N (Homo sapiens, UniProt P61088); type: functional;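 also: Dose-response confirmation in a TR-FRET assay detecting UBC13-driven polyubiquitin chain formation, inhibition measured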
T1 sequence (P61088 whole entry): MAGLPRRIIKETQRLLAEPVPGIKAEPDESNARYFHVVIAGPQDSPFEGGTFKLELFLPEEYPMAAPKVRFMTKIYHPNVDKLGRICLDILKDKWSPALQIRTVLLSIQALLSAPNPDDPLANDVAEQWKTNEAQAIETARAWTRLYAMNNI

[6] = molecular target: Intestinal-type alkaline phosphatase (Homo sapiens, UniProt P09923); experiment: activation of human intestinal alkaline phosphatase – biochemical, luminescent, uHTS hits, set 2, dose response (AID 488817); type: functional;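 also: potency of activators that raise enzyme activity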
[7] = molecular target: Intestinal-type alkaline phosphatase (Mus musculus, UniProt P24822); experiment: PubChem AID 488785; type: functional
Activated CDC42 kinase 1 = Activated CDC42 kinase 1 (Homo sapiens, UniProt Q07912); experiment: Navigating the Kinome. Panel member name: ACK1; type: functional
[8] = molecular target: Serine/threonine-protein kinase Nek4 (Homo sapiens, UniProt P51957); type: functional
[9] = molecular target: Mitogen-activated protein kinase kinase kinase kinase 4 (Homo sapiens, UniProt O95819); type: functional
[10] = molecular target: Cell division cycle 7-related protein kinase (Homo sapiens, UniProt O00311); type: functional;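 also: value obtained from a kinome-wide kinase panel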
[11] = molecular target: Serine/threonine-protein kinase PLK1 (Homo sapiens, UniProt P53350); type: functional;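 also: PLK1 measured as one member of a kinome-wide profiling panel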
Sequence of Serine/threonine-protein kinase PLK1 (P53350 whole entry): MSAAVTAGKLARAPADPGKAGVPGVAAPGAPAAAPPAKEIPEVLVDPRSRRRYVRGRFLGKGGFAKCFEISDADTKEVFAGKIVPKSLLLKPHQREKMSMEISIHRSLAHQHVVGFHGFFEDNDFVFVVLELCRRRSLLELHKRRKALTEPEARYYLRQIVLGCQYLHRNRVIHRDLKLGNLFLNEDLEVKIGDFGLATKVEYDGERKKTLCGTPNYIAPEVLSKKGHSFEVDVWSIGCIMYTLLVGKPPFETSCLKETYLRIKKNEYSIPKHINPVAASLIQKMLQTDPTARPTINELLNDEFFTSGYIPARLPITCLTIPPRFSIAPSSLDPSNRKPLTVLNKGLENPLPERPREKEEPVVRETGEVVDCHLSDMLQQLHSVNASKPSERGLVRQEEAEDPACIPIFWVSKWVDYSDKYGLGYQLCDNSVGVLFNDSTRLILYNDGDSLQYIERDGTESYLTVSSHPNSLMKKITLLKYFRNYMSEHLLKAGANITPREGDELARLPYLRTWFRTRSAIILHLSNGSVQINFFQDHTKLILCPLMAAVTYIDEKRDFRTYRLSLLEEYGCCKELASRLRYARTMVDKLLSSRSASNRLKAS

[12] = molecular target: cGMP-dependent protein kinase 1 (Homo sapiens, UniProt Q13976); type: functional;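 also: value from a kinome panel screen with PRKG1 as the panel member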
[13] = molecular target: Serine/threonine-protein kinase pim-1 (Homo sapiens, UniProt P11309); type: functional
Sequence of Serine/threonine-protein kinase pim-1 (P11309 whole entry): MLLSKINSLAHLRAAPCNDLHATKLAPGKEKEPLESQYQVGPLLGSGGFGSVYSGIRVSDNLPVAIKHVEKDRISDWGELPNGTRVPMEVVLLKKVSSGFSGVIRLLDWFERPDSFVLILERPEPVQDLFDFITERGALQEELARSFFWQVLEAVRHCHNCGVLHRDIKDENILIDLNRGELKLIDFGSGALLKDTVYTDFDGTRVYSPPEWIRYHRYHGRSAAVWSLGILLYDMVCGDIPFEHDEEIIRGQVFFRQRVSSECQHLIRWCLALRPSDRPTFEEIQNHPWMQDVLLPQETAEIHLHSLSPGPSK

[14] = molecular target: Mast/stem cell growth factor receptor Kit (Homo sapiens, UniProt P10721); type: functional;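 also: KIT entry within a kinase panel assay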
[15] = molecular target: Tyrosine-protein kinase Lyn (Homo sapiens, UniProt P07948); type: functional;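 also: lyn as one member of a kinase panel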
[16] = molecular target: Macrophage-stimulating protein receptor (Homo sapiens, UniProt Q04912); experiment: Navigating the Kinome. Panel member name: MST1R; type: functional
Sequence of Macrophage-stimulating protein receptor (Q04912 25-304 limits assumed): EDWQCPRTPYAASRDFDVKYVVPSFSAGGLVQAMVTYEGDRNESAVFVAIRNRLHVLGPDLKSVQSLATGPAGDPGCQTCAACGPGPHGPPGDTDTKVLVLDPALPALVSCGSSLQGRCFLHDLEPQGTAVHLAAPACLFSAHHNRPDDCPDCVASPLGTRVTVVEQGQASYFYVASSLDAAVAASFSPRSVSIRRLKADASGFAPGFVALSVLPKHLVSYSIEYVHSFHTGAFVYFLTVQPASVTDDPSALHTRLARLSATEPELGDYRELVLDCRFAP
Sequence of Macrophage-stimulating protein receptor (Q04912 310-1400 limits assumed): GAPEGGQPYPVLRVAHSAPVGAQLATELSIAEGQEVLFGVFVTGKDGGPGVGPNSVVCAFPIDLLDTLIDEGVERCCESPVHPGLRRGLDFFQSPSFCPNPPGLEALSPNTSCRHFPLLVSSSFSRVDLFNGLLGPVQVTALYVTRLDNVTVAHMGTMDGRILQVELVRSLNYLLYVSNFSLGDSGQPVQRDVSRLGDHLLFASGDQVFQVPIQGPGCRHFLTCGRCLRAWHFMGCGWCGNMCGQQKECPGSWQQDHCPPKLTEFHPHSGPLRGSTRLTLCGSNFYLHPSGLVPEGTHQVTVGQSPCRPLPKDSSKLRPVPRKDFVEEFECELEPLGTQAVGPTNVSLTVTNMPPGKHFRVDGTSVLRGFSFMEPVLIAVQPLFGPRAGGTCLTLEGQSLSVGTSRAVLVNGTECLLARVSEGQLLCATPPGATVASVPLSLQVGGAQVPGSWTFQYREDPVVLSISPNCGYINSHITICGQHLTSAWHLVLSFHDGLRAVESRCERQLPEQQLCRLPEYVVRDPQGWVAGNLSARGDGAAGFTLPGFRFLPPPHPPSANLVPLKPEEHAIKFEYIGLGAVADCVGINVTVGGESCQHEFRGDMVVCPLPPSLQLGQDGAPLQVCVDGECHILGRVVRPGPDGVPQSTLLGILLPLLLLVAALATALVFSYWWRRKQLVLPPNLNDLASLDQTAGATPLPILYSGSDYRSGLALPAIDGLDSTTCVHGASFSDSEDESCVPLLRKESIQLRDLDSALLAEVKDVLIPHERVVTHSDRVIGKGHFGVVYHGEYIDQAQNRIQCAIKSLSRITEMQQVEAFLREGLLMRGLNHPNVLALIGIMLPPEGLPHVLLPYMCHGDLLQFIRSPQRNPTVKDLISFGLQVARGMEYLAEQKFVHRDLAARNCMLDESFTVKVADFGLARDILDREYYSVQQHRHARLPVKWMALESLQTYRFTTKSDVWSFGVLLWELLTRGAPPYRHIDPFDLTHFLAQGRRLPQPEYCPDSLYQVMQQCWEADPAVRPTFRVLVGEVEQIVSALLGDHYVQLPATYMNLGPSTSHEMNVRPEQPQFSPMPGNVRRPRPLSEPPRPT

[17] = molecular target: Ribosomal protein S6 kinase beta-1 (Homo sapiens, UniProt P23443); type: functional;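 also: measured as one member of a kinome-wide profiling panel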
[18] = molecular target: Calcium/calmodulin-dependent protein kinase type II subunit gamma (Homo sapiens, UniProt Q13555); type: functional
[19] = molecular target: Leukocyte tyrosine kinase receptor (Homo sapiens, UniProt P29376); experiment: Navigating the Kinome. Panel member name: LTK; type: functional
Activin receptor type-1 = Activin receptor type-1 (Homo sapiens, UniProt Q04771); experiment: Navigating the Kinome. Panel member name: ACVR1; type: functional
[20] = molecular target: Tyrosine-protein kinase SYK (Homo sapiens, UniProt P43405); type: functional
[21] = molecular target: Macrophage colony-stimulating factor 1 receptor (Homo sapiens, UniProt P07333); type: functional;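 also: value comes from the Navigating the Kinome screening panel, CSF1R member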
[22] = molecular target: Insulin-like growth factor 1 receptor (Homo sapiens, UniProt P08069); experiment: Navigating the Kinome. Panel member name: IGF1R; type: functional
[23] = molecular target: Vascular endothelial growth factor receptor 3 (Homo sapiens, UniProt P35916); type: functional;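 also: value from a kinome-wide profiling panel, with FLT4 as the panel member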
Sequence of Vascular endothelial growth factor receptor 3 (P35916 whole entry): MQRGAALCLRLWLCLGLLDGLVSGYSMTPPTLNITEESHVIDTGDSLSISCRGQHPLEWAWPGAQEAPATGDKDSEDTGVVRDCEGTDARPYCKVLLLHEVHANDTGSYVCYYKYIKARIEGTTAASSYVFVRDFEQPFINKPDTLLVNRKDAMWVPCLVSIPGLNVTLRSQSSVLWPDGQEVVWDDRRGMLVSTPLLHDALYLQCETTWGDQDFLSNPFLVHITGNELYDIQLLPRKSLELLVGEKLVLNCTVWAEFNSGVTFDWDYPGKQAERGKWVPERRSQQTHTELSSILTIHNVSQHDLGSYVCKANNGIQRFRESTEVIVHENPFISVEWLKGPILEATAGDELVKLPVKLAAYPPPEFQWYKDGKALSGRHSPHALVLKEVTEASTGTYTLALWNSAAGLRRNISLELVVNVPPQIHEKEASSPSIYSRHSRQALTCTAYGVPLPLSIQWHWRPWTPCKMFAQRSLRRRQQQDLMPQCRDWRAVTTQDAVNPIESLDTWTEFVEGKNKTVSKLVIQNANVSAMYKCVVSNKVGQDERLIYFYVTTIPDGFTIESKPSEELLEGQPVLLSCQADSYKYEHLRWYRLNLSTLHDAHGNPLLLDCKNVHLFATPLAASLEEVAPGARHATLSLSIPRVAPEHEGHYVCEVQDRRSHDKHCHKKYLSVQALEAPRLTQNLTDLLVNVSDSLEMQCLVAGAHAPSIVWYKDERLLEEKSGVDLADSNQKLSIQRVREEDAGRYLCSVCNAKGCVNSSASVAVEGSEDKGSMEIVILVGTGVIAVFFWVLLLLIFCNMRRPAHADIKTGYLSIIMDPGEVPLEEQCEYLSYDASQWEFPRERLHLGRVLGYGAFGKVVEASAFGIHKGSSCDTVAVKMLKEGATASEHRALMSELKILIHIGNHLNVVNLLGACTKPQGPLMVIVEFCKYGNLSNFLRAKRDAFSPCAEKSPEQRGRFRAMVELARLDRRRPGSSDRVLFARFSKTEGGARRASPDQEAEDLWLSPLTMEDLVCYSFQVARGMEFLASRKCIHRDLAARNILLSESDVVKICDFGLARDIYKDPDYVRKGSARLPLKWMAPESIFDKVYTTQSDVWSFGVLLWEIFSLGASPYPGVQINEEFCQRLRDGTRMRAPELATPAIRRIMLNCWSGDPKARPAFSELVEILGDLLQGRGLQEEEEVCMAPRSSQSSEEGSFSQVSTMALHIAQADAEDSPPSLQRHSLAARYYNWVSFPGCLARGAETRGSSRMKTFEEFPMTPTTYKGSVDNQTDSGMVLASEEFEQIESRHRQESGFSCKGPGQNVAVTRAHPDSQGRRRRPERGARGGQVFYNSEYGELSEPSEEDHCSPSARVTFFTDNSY

[24] = molecular target: Dual specificity tyrosine-phosphorylation-regulated kinase 4 (Homo sapiens, UniProt Q9NR20); type: functional
[25] = molecular target: Mitogen-activated protein kinase kinase kinase kinase 5 (Homo sapiens, UniProt Q9Y4K4); type: functional;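 also: measured as one member of a kinome-spanning kinase panel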
[26] = molecular target: RAC-gamma serine/threonine-protein kinase (Homo sapiens, UniProt Q9Y243); type: functional
[27] = molecular target: Dual specificity tyrosine-phosphorylation-regulated kinase 1A (Homo sapiens, UniProt Q13627); type: functional;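 also: measured against DYRK1A as one member of a broad kinome profiling panel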
[28] = molecular target: Vascular endothelial growth factor receptor 1 (Homo sapiens, UniProt P17948); type: functional;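 also: measured within a kinome-wide profiling panel, FLT1 as the panel member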
[29] = molecular target: Dual specificity protein kinase CLK4 (Homo sapiens, UniProt Q9HAZ1); type: functional
Sequence of Dual specificity protein kinase CLK4 (Q9HAZ1 whole entry): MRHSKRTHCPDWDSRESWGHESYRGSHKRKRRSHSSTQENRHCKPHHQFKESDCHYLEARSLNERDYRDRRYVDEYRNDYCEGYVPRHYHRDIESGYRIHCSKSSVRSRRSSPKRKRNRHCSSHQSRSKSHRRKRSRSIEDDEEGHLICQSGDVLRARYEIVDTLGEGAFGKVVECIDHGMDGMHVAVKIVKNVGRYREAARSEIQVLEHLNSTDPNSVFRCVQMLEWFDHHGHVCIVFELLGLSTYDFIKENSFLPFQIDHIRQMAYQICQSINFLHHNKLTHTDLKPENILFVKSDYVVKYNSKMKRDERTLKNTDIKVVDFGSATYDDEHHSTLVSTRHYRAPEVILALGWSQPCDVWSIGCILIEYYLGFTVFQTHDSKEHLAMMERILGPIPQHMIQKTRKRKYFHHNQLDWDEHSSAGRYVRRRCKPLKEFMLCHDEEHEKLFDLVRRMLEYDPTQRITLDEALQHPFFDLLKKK

[30] = molecular target: Cyclin-dependent kinase 2 (Homo sapiens, UniProt P24941); type: functional;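 also: CDK2 measured as one member of a broad kinome profiling panel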
[31] = molecular target: MAP/microtubule affinity-regulating kinase 3 (Homo sapiens, UniProt P27448); type: functional;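 also: MARK3 affinity measured as one member of a kinome panel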
[32] = molecular target: Fibroblast growth factor receptor 1 (Homo sapiens, UniProt P11362); type: functional
[33] = molecular target: Dual specificity tyrosine-phosphorylation-regulated kinase 3 (Homo sapiens, UniProt O43781); type: functional;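 also: measured as one member of a broad kinase panel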
[34] = molecular target: Receptor tyrosine-protein kinase erbB-4 (Homo sapiens, UniProt Q15303); type: functional;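 also: ERBB4 member of a kinome-wide kinase profiling panel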
ORF 73 = ORF 73 (Human herpesvirus 8, UniProt O40947); experiment: KSHV LANA DNA-binding disruption – biochemical, fluorescence polarization, cherry-picked samples, dose response (AID 504725); parameters: species or system Human gammaherpesvirus 8;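 also: fluorescence polarization of a labeled DNA duplex reporting LANA DNA binding; potency is for inhibitors that block LANA binding to the DNA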
[35] = molecular target: Bifunctional protein GlmU (Mycobacterium tuberculosis, UniProt P9WMN3); experiment: Inhibitors of Mycobacterial Glucosamine-1-phosphate acetyl transferase (GlmU). Secondary screen.; parameters: species or system Mycobacterium tuberculosis H37Rv
Sequence of Bifunctional protein GlmU (P9WMN3 whole entry): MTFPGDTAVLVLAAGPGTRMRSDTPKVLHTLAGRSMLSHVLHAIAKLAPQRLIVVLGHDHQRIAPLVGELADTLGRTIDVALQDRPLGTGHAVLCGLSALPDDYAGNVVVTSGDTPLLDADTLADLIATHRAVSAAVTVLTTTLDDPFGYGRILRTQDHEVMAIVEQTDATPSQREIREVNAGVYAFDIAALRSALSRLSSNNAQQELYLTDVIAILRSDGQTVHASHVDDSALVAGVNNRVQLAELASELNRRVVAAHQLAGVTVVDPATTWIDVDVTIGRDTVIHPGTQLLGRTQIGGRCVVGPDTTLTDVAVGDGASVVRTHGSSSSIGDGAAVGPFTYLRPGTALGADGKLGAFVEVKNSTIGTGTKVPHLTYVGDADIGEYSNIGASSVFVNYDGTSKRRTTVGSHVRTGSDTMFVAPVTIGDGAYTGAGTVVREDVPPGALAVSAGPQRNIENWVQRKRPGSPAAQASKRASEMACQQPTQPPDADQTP

Structure (SMILES): COC(=O)C1CN(C#N)N(c2ccc(Cl)cc2)C12c1ccccc1-c1ccccc12 (centres undefined)
- EC50 (BJ [1]): 2.49 µM (inconclusive)
- EC50 [2]: > 120 µM (not active)
- CC50 (HeLa): 3.02 µM (active)
- EC50 (BJ [3]): 1.93 µM (active)
- EC50 [4]: 4.31 µM (active)

Structure (SMILES): O=C(NN1C(=O)CSC1=S)C(=O)NN1C(=O)CSC1=S
- IC50 [5]: > 20 µM (inactive)
- EC50 [6]: 12.4 µM (active)
- IC50 [7]: 7.75 µM (active)

Structure (SMILES): Nc1noc2cccc(-c3cccc(O)c3)c12
- Ki (Activated CDC42 kinase 1): 25.1 µM (active)
- Ki [8]: > 6.31 µM (inactive)
- Ki [9]: 20 µM (active)
- Ki [10]: > 1.26 µM (inactive)
- Ki [11]: > 7.94 µM (inactive)
- Ki [12]: > 2 µM (inactive)
- Ki [13]: 12.6 µM (active)
- Ki [14]: > 1.26 µM (inactive)
- Ki [15]: > 1.58 µM (inactive)
- Ki [16]: 20 µM (active)
- Ki [17]: 0.126 µM (active)
- Ki [18]: 6.31 µM (active)
- Ki [19]: 1.26 µM (active)
- Ki (Activin receptor type-1): 0.631 µM (active)
- Ki [20]: > 1.58 µM (inactive)
- Ki [21]: > 5.01 µM (inactive)
- Ki [22]: > 2 µM (inactive)
- Ki [23]: > 6.31 µM (inactive)
- Ki [24]: > 7.94 µM (inactive)
- Ki [25]: > 7.94 µM (inactive)
- Ki [26]: > 10 µM (inactive)
- Ki [27]: 2 µM (active)
- Ki [28]: > 10 µM (inactive)
- Ki [29]: 1.26 µM (active)
- Ki [30]: > 7.94 µM (inactive)
- Ki [31]: > 6.31 µM (inactive)
- Ki [32]: 15.8 µM (active)
- Ki [33]: > 6.31 µM (inactive)
- Ki [34]: > 3.98 µM (inactive)

Structure (SMILES): O=C1NC(=S)S/C1=C\C=C\c1ccc([N+](=O)[O-])o1
- AC50 (ORF 73): 71.4 µM (active)
- IC50 [35]: 19.1 µM (active)
